Values quoted from earlier work as cited in patent publication US11116842B2, “Methylene blue complex for treating skin disease and its use thereof” (D. R. NANO Co., Ltd., priority 2017, dated 2021).

System: skin disease such as acne
Conditions: for side effect in a long-term application: background art

| SMILES | side effect in a long-term application | Light protection time after operation (prior-art photosensitizers) | Treatment effect (prior-art photosensitizers) |
| --- | --- | --- | --- |
| COC(=O)CCC(=O)CN [MAL, Methyl-aminolevulinate] | xeroderma |  |  |
| NCC(=O)CCC(=O)O [ALA, 5-aminolevulinic acid] | xeroderma | T > 30 hr | strong |
